Data set [1] concerns murine ovarian tumor (MOT). Kind of data set: tumor cell survival after treatment of mouse ascites tumor (MOT). Format: in vivo, C3HeB/FeJ mice. The method, then: (§1) The murine ovarian tumor (MOT) used in these experiments arose spontaneously in the ovary of a C3H mouse and is maintained in our laboratories by serial intraperitoneal [i.p.] transplantation in female C3HeB/FeJ mice. We have examined the appropriateness of the i.p. route for IUdR administration as a means to (i) bypass the rapid intrahepatic dehalogenation of this agent, and (ii) obtain high tumor to nontumor ratios. In these experiments, mice were injected with 10^6 tumor cells 24 h prior to the i.p. administration of ^125 IUdR [5 injections, 4 h apart]. […] Tumor-to-normal-tissue ratios derived from th biodistribution results ranged from 20 for organs with actively proliferating cells (for example uterus, intestine, stomach) to over 400 for organs with nondividing cells (brain, heart).
(§2) The tumor used in these experiments is the same murine ovarian tumor desoribed above. We have determined the median survival of mice after i.p. challenge with various tumor cell inocula.
The relatively long survival of tumor-bearing mice facilitates quantitative evaluation of tumor cell killing after treatment with ^125 IUdR and can be used to calculate a cellular survival fraction. We have, therefore, studied tumor cell survival as a function of the dose of ^125 IUdR administered i.p. at 4 h intervals beginning 24 h after tumor cell i.p. inoculation [10^5 -10^6 cells].
When mice are treated with four doses of ^125 IUdR at 4-h intervals and the survival fraction plotted as a function of the dose per treatment, a rapid decrease in the tumor cell survival fraction [10^-3 ] is observed at doses of 20 μCi per treatment with the curve being flat at higher levels [FIG. 6]. When seven consecutive injections of ^125 IUdR are given, a similar steep reduction in tumor cell survival is also observed; the plateau in this regimen occurs at a survival fraction of 10^-5.

A short description of data set [2]: catabolism/dehalogenation of IUdR in vivo. To be noted: IUdR escaping from the CNS.
The test system of data set [3] is cultured mammalian cells. To be noted: when incorporated into nuclear DNA; in vitro; cited from earlier work.
The test system of data set [4] is 9L gliosarcoma. Kind of data set: scintigraphic imaging of intracerebral 9L gliosarcoma-bearing and sham-operated rats.
The subject of data set [5] is murine ovarian tumor (MOT). Kind of data set: scintigraphic imaging in MOT-bearing and control mice. The data set is classed as in vivo, C3HeB/FeJ mice.
The test system of data set [6] is 9L gliosarcoma. Kind of data set: biodistribution of radioactivity 40 h after intracerebral injection in 9L gliosarcoma-bearing and sham-operated rats.
Assay in data set [7]: as above
The note with it: rat, right brain.

The subject of data set [8] is murine ovarian tumor (MOT). Kind of data set: median survival of tumor-bearing (MOT ascites) mice. The data set is classed as in vivo, C3HeB/FeJ mice. The note with it: 5 i.p. injections, 4 h intervals, 24 h post i.p. tumor inoculation; FIG. 7; dose-dependent. As for the experimental part: as §1, §2
The mark [9] stands for this setting: later time points (2, 16 and 24 hr), single injection of 300 μCi.

Structures are written as SMILES.

As for `O=c1[nH]c(=O)n([C@H]2C[C@H](O)[C@@H](CO)O2)cc1[131I]` [IUdR radiolabeled with ^131 I, reference compound], in data set [1] (equivalent doses), the “decrease in tumor cell survival” value is “does not result in anv decrease in survival”.

For `O=c1[nH]c(=O)n([C@H]2C[C@H](O)[C@@H](CO)O2)cc1I` [IUdR, 5-Iodo-2'-deoxyuridine], the catabolism/dehalogenation result in data set [2] is “rapidly”.

Turning to `O=c1[nH]c(=O)n([C@H]2C[C@H](O)[C@@H](CO)O2)cc1[123I]` [^123 IUdR, 5-[^123 I/^125 I]iodo-2'-deoxyuridine], the “toxicity to cultured mammalian cells” value in data set [3] is recorded as “extremely toxic”. The “activity in the thyroid” value in data set [4] (0.1% potassium iodide in drinking water 48 h prior) is listed as “No activity was seen”. For the same compound, in data set [4] (12-38 h, all tumor-bearing animals), the “activity within the head region at subsequent intervals” value was “persistence of the activity”. Besides, the “bladder and stomach activities at subsequent intervals” value in data set [4] (12-38 h, both groups, mainly associated with stomach contents and urine) is “still observed in both groups”. For the same compound, the “activity in the head” value in data set [4] (1 h after intracerebral injection, tumor-bearing [n=16] and sham-operated [n=8]) is “showed activity in the head”. In addition, the “clearance of the activity from the head” value in data set [4] (all control (sham-operated) animals) was not above 12 h. For the same compound, the “activity in the stomach and the bladder” value in data set [4] (scintigraphy, 1 h after intracerebral injection) is recorded as “evident”. Moreover, the “dehalogenation and excretion of free iodine” value in data set [4] (suggested by stomach and bladder activity, 1 h) is reported as “rapid”. Moreover, the “tumor cell survival fraction as a function of dose” value in data set [1] (5 i.p. injections, 4 h intervals, 24 h post i.p. tumor inoculation, FIG. 8) is “exponential decrease”. Besides, in data set [5] (1 h after single injection of 300 μCi), the “abdominal radioactivity, tumor-bearing and control mice” value was “focal localization of radioactivity”. Also, in data set [5] (setting [9]), the “abdominal activity, animals without tumor” value is reported as “cleared from the abdomen” and the “focal area of abdominal activity, MOT-bearing mice” value is listed as “persisted only in MOT-bearing mice”. Besides, in data set [6] (40 h, mainly associated with the stomach contents and with urine), the “activity in stomach and bladder” value is “high activities”. In addition, in data set [6] (40 h, with the exception of the stomach and the bladder), the “activity in all other normal tissues” value is listed as “low”. Besides, in data set [6] (one animal, 40 h after injection), the “uptake in a tumor that could be precisely excised” value is on record as 12 % of the ID. Besides, the tissue uptake at 40 h in data set [7] worked out at 0.36 ± 0.14 %ID/g. Moreover, the tissue uptake at 40 h in data set [7] (uptake in right brain [injected side], sham-operated controls, 40 h after injection, mean±SD) is 0.09 ± 0.02 %ID/g. For the same compound, the “median survival of tumor-bearing animals” value in data set [8] is reported as “prolongs median survival”.

For `O=c1[nH]c(=O)n([C@H]2C[C@H](O)[C@@H](CO)O2)cc1[125I]` [^125 IUdR, 5-[^123 I/^125 I]iodo-2'-deoxyuridine], the “toxicity to cultured mammalian cells” value in data set [3] is “extremely toxic”. Also, in data set [1] (four i.p. doses at 4-h intervals, 20 μCi per treatment, curve flat at higher levels), the “tumor cell survival fraction” value was 10^-3. Besides, the “tumor cell survival fraction (plateau)” value in data set [1] (seven consecutive i.p. injections) is recorded as 10^-5.

In general, tissue uptake refers to the percentage of the injected dose found per gram of tissue.

(Values after patent US5077034A, “Treatment of tumors with 5-radioiodo-2'-deoxyuridine” (priority 1990, dated 1991).)
